Values after ≈ are worked out from the molar mass of the structure shown.
Assays:
Assay type in all cases: cell-based, Escherichia coli
[1] = tested on: E. coli strain ECM6716 (pUCP24::OXA-48); assay: MIC, broth microdilution, isogenic E. coli panel, OXA-48 strain; details: for Ratio of MIC vs vector alone: strain ECM6716, pUCP24::OXA-48 vs ECM6704
Description: (§1) Potency and spectrum of compound 1 was determined using the panel of isogenic engineered strains, each containing a plasmid carrying a cloned gene expressing a β-lactamase enzyme. The strain that contained the empty vector was included to evaluate the impact of individual β-lactamases on microbiological activity of compound 1 vs comparator antibiotics. The host strain was wild-type strain of Escherichia coli, ECM5497. The vector plasmid was pUCP24. […] MIC was assessed using broth microdilution method as recommended by the NCCLS (National Committee for Clinical Laboratory Standards. Methods for Dilution Antimicrobial Susceptibility Tests for Bacteria that Grow Aerobically—4th Edition. Approved Standard NCCLS Document M7-A4, Vol. 17, No. 2, NCCLS, Wayne, Pa., January 1997). In this assay multiple dilutions of drugs are being tested for the ability to inhibit growth of the test bacterial strains. The MIC assay is performed in microtiter plates. Antibiotics are diluted two-fold in the x axis, each column containing a single concentration of antibiotic. The assay is performed in MHB with a final bacterial inoculum of 5×10^5 CFU/mL (from an early-log phase culture). Microtiter plates are incubated during 20 h at 35° C. and are read using a microtiterplate reader (Molecular Devices) at 650 nm as well as visual observation using a microtiter plate reading mirror.

[2] = tested on: E. coli strain ECM6711 (pUCP24::VIM-1); assay: MIC, broth microdilution, isogenic E. coli panel, VIM-1 strain; details: for Ratio of MIC vs vector alone: strain ECM6711, pUCP24::VIM-1 vs ECM6704
Description: as §1

[3] = tested on: E. coli strain ECM6703 (pUCP24::NDM-1); assay: MIC, broth microdilution, isogenic E. coli panel, NDM-1 strain; details: for Ratio of MIC vs vector alone: strain ECM6703, pUCP24::NDM-1 vs ECM6704
Description: as §1

[4] = tested on: E. coli strain ECM6713 (pUCP24::TEM-10); assay: MIC, broth microdilution, isogenic E. coli panel, TEM-10 strain; details: for Ratio of MIC vs vector alone: strain ECM6713, pUCP24::TEM-10 vs ECM6704
Description: as §1

[5] = tested on: E. coli strain ECM6694 (pUCP24::CTX-M-15); assay: MIC, broth microdilution, isogenic E. coli panel, CTX-M-15 strain; details: for Ratio of MIC vs vector alone: strain ECM6694, pUCP24::CTX-M-15 vs ECM6704
Description: as §1

[6] = tested on: E. coli strain ECM6704 (pUCP24, vector); assay: MIC, broth microdilution, isogenic E. coli panel, empty vector strain; details: for Ratio of MIC vs vector alone: strain ECM6704, pUCP24, vector (reference strain itself)
Description: as §1

[7] = tested on: E. coli strain ECM6715 (pUCP24::AmpC); assay: MIC, broth microdilution, isogenic E. coli panel, AmpC strain; details: for Ratio of MIC vs vector alone: strain ECM6715, pUCP24::AmpC vs ECM6704
Description: as §1

[8] = tested on: E. coli strain ECM6696 (pUCP24::NMC-A); assay: MIC, broth microdilution, isogenic E. coli panel, NMC-A strain; details: for Ratio of MIC vs vector alone: strain ECM6696, pUCP24::NMC-A vs ECM6704
Description: as §1

[9] = tested on: E. coli strain ECM6706 (pUCP24::SME-2); assay: MIC, broth microdilution, isogenic E. coli panel, SME-2 strain; details: for Ratio of MIC vs vector alone: strain ECM6706, pUCP24::SME-2 vs ECM6704
Description: as §1

[10] = tested on: E. coli strain ECM6718 (pUCP24::SHV-5); assay: microbe, parasite or virus in culture; details: for Ratio of MIC vs vector alone: strain ECM6718, pUCP24::SHV-5 vs ECM6704
Description: as §1

[11] = tested on: E. coli strain ECM6701 (pUCP24::KPC-2); assay: microbe, parasite or virus in culture; details: for Ratio of MIC vs vector alone: strain ECM6701, pUCP24::KPC-2 vs ECM6704
Description: as §1

[12] = tested on: E. coli strains expressing individual β-lactamases; assay: Impact of β-lactamases on microbiological activity, whole panel of isogenic engineered strains
Description: as §1
Table 2 contains MICs of compound 1 and comparator antibiotics for each test strain and Table 3 contains MIC ratios vs vector only control (strain ECM6704). β-Lactamases present in the test panel belonged to all four currently described classes of enzymes, A, B, C and D. These β-lactamases also represent the major groups of the most relevant enzymes.

[13] = strain ECM6718, pUCP24::SHV-5, class A, ESBL
[14] = strain ECM6701, pUCP24::KPC-2, class A, carbapenemase
[15] = strain ECM6711, pUCP24::VIM-1, class B
[16] = strain ECM6703, pUCP24::NDM-1, class B
[17] = strain ECM6713, pUCP24::TEM-10, class A, ESBL
[18] = strain ECM6694, pUCP24::CTX-M-15, class A, ESBL
[19] = strain ECM6715, pUCP24::AmpC, class C
[20] = strain ECM6696, pUCP24::NMC-A, class A, carbapenemase
[21] = strain ECM6706, pUCP24::SME-2, class A, carbapenemase

C[C@H]1[C@H](NC(=O)/C(=N\OC(C)(C)C(=O)O)c2csc(N)n2)C(=O)N1S(=O)(=O)O [AZTREONAM, aztreonam]
MIC ([1]; Escherichia coli): 0.125 µg/mL (≈ 0.287 µM)
MIC ([2]; Escherichia coli): ≤ 0.06 µg/mL
MIC ([3]; Escherichia coli): ≤ 0.06 µg/mL
MIC ([4]; Escherichia coli): > 64 µg/mL
MIC ([5]; Escherichia coli): 32 µg/mL (≈ 73.5 µM)
MIC ([6]; Escherichia coli, 20 h): 0.125 µg/mL (≈ 0.287 µM)
MIC ([7]; Escherichia coli): 8 µg/mL (≈ 18.4 µM)
MIC ([8]; Escherichia coli): 64 µg/mL (≈ 147 µM)
MIC ([9]; Escherichia coli): > 64 µg/mL

NC(=O)OC[C@@H]1[C@H](NC(=O)/C(=N\OCC(=O)O)c2csc(N)n2)C(=O)N1S(=O)(=O)O [CARUMONAM, carumonam]
MIC ([1]; Escherichia coli): ≤ 0.06 µg/mL
MIC ([10]; Escherichia coli): 2 µg/mL (≈ 4.29 µM)
MIC ([11]; Escherichia coli): 0.25 µg/mL (≈ 0.536 µM)
MIC ([2]; Escherichia coli): ≤ 0.06 µg/mL
MIC ([3]; Escherichia coli): ≤ 0.06 µg/mL
MIC ([4]; Escherichia coli): 4 µg/mL (≈ 8.58 µM)
MIC ([5]; Escherichia coli): 0.125 µg/mL (≈ 0.268 µM)
MIC ([6]; Escherichia coli, 20 h): ≤ 0.06 µg/mL
MIC ([7]; Escherichia coli): 4 µg/mL (≈ 8.58 µM)
MIC ([8]; Escherichia coli): 0.25 µg/mL (≈ 0.536 µM)
Ratio of MIC vs vector alone [8]: 4 µg/mL
MIC ([9]; Escherichia coli): 0.125 µg/mL (≈ 0.268 µM)

CC(C)(O/N=C(\C(=O)N[C@@H]1C(=O)N2C(C(=O)[O-])=C(C[n+]3ccccc3)CS[C@H]12)c1csc(N)n1)C(=O)O [CEFTAZIDIME, ceftazidime]
MIC [10, 13]: 8 µg/mL (≈ 14.6 µM)
MIC [11, 14]: 4 µg/mL (≈ 7.32 µM)
MIC [2, 15]: >64 µg/mL
MIC [3, 16]: >64 µg/mL
MIC [4, 17]: 65 µg/mL (≈ 119 µM)
MIC [5, 18]: 16 µg/mL (≈ 29.3 µM)
MIC [7, 19]: 16 µg/mL (≈ 29.3 µM)
MIC [8, 20]: 0.5 µg/mL (≈ 0.915 µM)
MIC [9, 21]: 1 µg/mL (≈ 1.83 µM)

CC1(C)[C@H](NC(=O)/C(=N\OCC(=O)O)c2csc(N)n2)C(=O)N1OCC(=O)O [Compound 1, (S,Z)-2-(1-(2-aminothiazol-4-yl)-2-(1-(carboxymethoxy)-2,2-dimethyl-4-oxoazetidin-3-ylamino)-2-oxoethylideneaminooxy)acetic acid]
MIC ([1]; Escherichia coli): 2 µg/mL (≈ 4.81 µM)
Ratio of MIC vs vector alone [1]: 1
MIC ([10]; Escherichia coli): 4 µg/mL (≈ 9.63 µM)
Ratio of MIC vs vector alone [10]: 2
MIC ([11]; Escherichia coli): 1 µg/mL (≈ 2.41 µM)
Ratio of MIC vs vector alone [11]: 0.5
MIC ([2]; Escherichia coli): 1 µg/mL (≈ 2.41 µM)
Ratio of MIC vs vector alone [2]: 0.5
MIC ([3]; Escherichia coli): 1 µg/mL (≈ 2.41 µM)
Ratio of MIC vs vector alone [3]: 0.5
MIC ([4]; Escherichia coli): 16 µg/mL (≈ 38.5 µM)
Effect of TEM-10 on activity ([4]; only enzyme in the panel with an effect, much less than on other monobactams or ceftazidime): some effect
Ratio of MIC vs vector alone [4]: 8
Effect of class B or class D enzymes on potency ([12]; class B or class D β-lactamases): not affected
Effect of the majority of class A and class C enzymes on potency ([12]; majority of class A and class C β-lactamases): not affected
Effect of β-lactamases on potency, compared with the other β-lactams tested ([12]; whole panel, vs aztreonam, tigemonam, carumonam, ceftazidime): least affected
MIC ([5]; Escherichia coli): 1 µg/mL (≈ 2.41 µM)
Ratio of MIC vs vector alone [5]: 0.5
MIC ([6]; Escherichia coli, 20 h): 2 µg/mL (≈ 4.81 µM)
Ratio of MIC vs vector alone [6]: 1
MIC ([7]; Escherichia coli): 2 µg/mL (≈ 4.81 µM)
Ratio of MIC vs vector alone [7]: 1
MIC ([8]; Escherichia coli): 1 µg/mL (≈ 2.41 µM)
Ratio of MIC vs vector alone [8]: 0.5 µg/mL
MIC ([9]; Escherichia coli): 1 µg/mL (≈ 2.41 µM)
Ratio of MIC vs vector alone [9]: 0.5

CC1(C)[C@H](NC(=O)/C(=N\OCC(=O)O)c2csc(N)n2)C(=O)N1OS(=O)(=O)O [TIGEMONAM, tigemonam]
MIC ([1]; strain ECM6716, pUCP24::OXA-48, class D): 0.25 µg/mL (≈ 0.572 µM)
Ratio of MIC vs vector alone [1]: 2
MIC [10, 13]: 32 µg/mL (≈ 73.2 µM)
Ratio of MIC vs vector alone [10]: 128
MIC [11, 14]: 0.5 µg/mL (≈ 1.14 µM)
Ratio of MIC vs vector alone [11]: 2
MIC [2, 15]: 0.25 µg/mL (≈ 0.572 µM)
Ratio of MIC vs vector alone [2]: 1
MIC [3, 16]: 0.25 µg/mL (≈ 0.572 µM)
Ratio of MIC vs vector alone [3]: 2
MIC [4, 17]: >64 µg/mL
Ratio of MIC vs vector alone [4]: 256
MIC [5, 18]: 2 µg/mL (≈ 4.57 µM)
Ratio of MIC vs vector alone [5]: 8
Ratio of MIC vs vector alone [6]: 1
MIC ([6]; strain ECM6704, plasmid pUCP24, vector, MHB, 20 h at 35° C.): 0.25 µg/mL (≈ 0.572 µM)
Ratio of MIC vs vector alone [7]: 16
MIC [7, 19]: 4 µg/mL (≈ 9.14 µM)
Ratio of MIC vs vector alone [8]: 2 µg/mL
MIC [8, 20]: 0.5 µg/mL (≈ 1.14 µM)
MIC [9, 21]: 0.5 µg/mL (≈ 1.14 µM)
Ratio of MIC vs vector alone [9]: 2
